Test results published in patent publication US11274079B2 (DALIAN INSTITUTE OF CHEMICAL PHYSICS, CHINESE ACADEMY OF …, priority 2018, dated 2022).

Key:
M1 receptor = biological target: T1, M1 receptor (Homo sapiens, UniProt P11229); assay: DMR assay, antagonism of acetylcholine in CHO-K1 cells stably transfecting the M1 receptor; type: cell-based; conditions: CHO-K1-M1 cells, DMR, acetylcholine 1 μM, 1 h pretreatment, time point 5 min
T1 construct: expressed in transfected cells; host or cells: CHO-K1
T1 sequence (P11229 1-460): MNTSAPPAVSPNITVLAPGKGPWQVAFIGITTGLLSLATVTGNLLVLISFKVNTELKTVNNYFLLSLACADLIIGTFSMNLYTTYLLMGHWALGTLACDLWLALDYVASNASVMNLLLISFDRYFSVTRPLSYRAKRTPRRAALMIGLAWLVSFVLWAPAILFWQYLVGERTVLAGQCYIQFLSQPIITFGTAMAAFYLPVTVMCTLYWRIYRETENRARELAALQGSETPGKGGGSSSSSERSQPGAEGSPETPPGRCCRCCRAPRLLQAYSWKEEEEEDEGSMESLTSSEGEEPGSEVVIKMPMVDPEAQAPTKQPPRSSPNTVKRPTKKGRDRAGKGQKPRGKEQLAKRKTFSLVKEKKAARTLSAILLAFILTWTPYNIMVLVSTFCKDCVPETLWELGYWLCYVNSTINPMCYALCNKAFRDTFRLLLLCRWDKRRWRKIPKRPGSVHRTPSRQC
Protocol: (§1) The present invention relates to the antagonistic activity of the compound against the muscarinic receptor, which is primarily assessed by a cell-level dynamic mass redistribution (DMR) assay method. All tests are carried out on Epic platform, wherein the target model of the muscarinic receptor M1 is the CHO-K1 ceil model stably transfecting the M1 receptor, the target model of M3 is the HT-29 cell model endogenously highly expressing the M3 receptor, and the selected probe molecule is acetylcholine. Tire probe molecule acetylcholine is dissolved in water, while all other compounds are dissolved in DMSO.
(§2) The inoculated cell plate is placed in a cell incubator for culture for 12 h until the cell growth and fusion degree reaches about 95%, and the activity assay is carried out. The culture medium is sucked from the cultured ceils, the buffer salt specified by the test is added with a volume of 30 μL per orifice and is stabilized for 1 h. After the baseline is stable, a 2-min baseline is established, and different concentrations of compounds to be tested are added to test the cultured cells for 1 h. After the cells are pretreated with the compounds to be tested for 1 h, the 2-min baseline is re-established, and acetylcholine having a concentration of 1 μM is added to test the cultured cells for 1 h.

M3 receptor = biological target: T2, M3 receptor (Homo sapiens, UniProt P20309); assay: DMR assay, antagonism of acetylcholine in HT-29 cells endogenously expressing the M3 receptor; type: cell-based; conditions: HT-29 cells, DMR, acetylcholine 16 μM, 1 h pretreatment, time point 30 min
T2 construct: HT-29 cell model endogenously highly expressing the M3 receptor; endogenous in cells; host or cells: HT-29
Protocol: as §1
as §2, with “20” for “12”, “cells,” for “ceils,”, “h.” for “h. After the cells are pretreated with the compounds to be tested for 1 h, the 2-min baseline is re-established, and acetylcholine having a concentration of 1 μM is added to test the cultured cells for 1 h.”

guinea pigs = assay: Acetylcholine chloride/histamine spray-induced asthma, incubation period; type: in vivo, guinea pig; conditions: for asthma incubation period: 0.2 mM in normal saline sprayed 10 min, challenge after 10 min, recorded as 240 s if no convulsion and fall; for efficacy in asthma model, in words: 0.2 mM spray
Protocol: On the first day, guinea pigs are placed in a 38×38×38 cm (about 55 L) of home-made container with an atomizing nozzle having a diameter of about 3 cm above the side wall. Ultrasonic atomizer (YUWELL, model 402AI) is used to spray normal saline containing acetylcholine chloride (20 g/L) and histamine (1 g/L) for 15 s. The incubation period of asthma of guinea pigs (also is called asthma incubation period, which is the time from the end of the spray to asthma attack, extreme breathing difficulty until convulsion and fall) is recorded after the cessation of spraying. Animals with an incubation period of less than 120 s are qualified sensitive animals.
2. Experimental Processes
On the second day, the qualified animals are selected for experiments, wherein one group (comprising 4 guinea pigs) is used as the control group, one group (comprising 4 guinea pigs) is experimented with positive medicine […] and one group (comprising 10 guinea pigs) is experimented with the drug to be tested. The animals are placed in a container, and sprayed with normal saline, tiotropium bromide and the compound to be tested. Both tiotropium bromide and the compound to be tested are soluble in normal saline at a concentration of 0.2 mM. After spraying for 10 min, the guinea pigs are taken out and put into another container of the same size. After 10 min, normal saline containing acetylcholine chloride (20 g/L) and histamine (1 g/L) is sprayed into the container for 15 s. The incubation periods of asthma of the guinea pigs are observed and recorded. If there is no convulsion and fall after 240 s, the incubation period is recorded as 240 s.

[1] = system: isolated tracheal smooth muscle; assay: Carbachol-induced contraction of isolated tracheal strip; conditions: Cavia porcellus, read-out: IC50, diastolic effect on isolated tracheal smooth muscle
From the text: 1. Experimental Materials
2. Preparation of Tracheal Strip
The guinea pig is put to death by hammering it on the head, the chest cavity is quickly opened, and trachea is carefully isolated. […] The connective tissue and fat around the trachea are gently removed, and the trachea segment is quickly suspended and cut into tracheal strips with a blade (2-3 mm in width and 20 mm in length). […] The upper end of the tracheal strip is connected to a muscle tension transducer, and the load is adjusted to 1.5 g. The biological signal processing system is used to record the changes in muscular tension of tracheal smooth muscle. The perfusate is replaced once every 15 min, and the experiment is started after the tension is stabilized for 1 h. After each experiment, the smooth muscle is rinsed 3 to 5 times, and the next experiment is carried out after stabilization to the baseline.
3. Effects of Compounds Tested on Contraction of Isolated Tracheal Strip in Guinea Pig
After incubation of isolated tracheal for 1 h, 10 μm/L of carbachol is added to induce the minimum concentration (the concentration obtained from the dose-effect curve of carbachol) of the maximum tracheal smooth muscle contraction, and the changes in tension of the tracheal strip within 5 min are recorded. When the tension of the tracheal smooth muscle reaches the highest point, the compounds tested with a concentration of 1 nm/L are added, and the changes in tension of the tracheal strip within 5 min are recorded. […] Then, the concentration difference is decreased, that is, the concentration is increased by three or four times to repeat the above administration, which makes the tension decrease continuously to the base value (initial load). The changes in tension of the tracheal stop within 5 min are recorded. The dose-effect relationship between the compounds tested and the contractile activity of the isolated tracheal smooth muscle in the guinea pig is obtained. The curve of the changes in tension of the tracheal smooth muscle in each group is recorded and the inhibition rate is calculated. After repeated experiments, IC50 value of each compound tested is calculated by taking points respectively.
The dose-effect relationship between solvent (DMSO) control group and the contractile activity of the isolated tracheal smooth muscle in the guinea pig is recorded. Inhibition Rate=(Tension before Administration−Tension after Administration)/Tension before Administration

T2 sequence (P20309 whole entry): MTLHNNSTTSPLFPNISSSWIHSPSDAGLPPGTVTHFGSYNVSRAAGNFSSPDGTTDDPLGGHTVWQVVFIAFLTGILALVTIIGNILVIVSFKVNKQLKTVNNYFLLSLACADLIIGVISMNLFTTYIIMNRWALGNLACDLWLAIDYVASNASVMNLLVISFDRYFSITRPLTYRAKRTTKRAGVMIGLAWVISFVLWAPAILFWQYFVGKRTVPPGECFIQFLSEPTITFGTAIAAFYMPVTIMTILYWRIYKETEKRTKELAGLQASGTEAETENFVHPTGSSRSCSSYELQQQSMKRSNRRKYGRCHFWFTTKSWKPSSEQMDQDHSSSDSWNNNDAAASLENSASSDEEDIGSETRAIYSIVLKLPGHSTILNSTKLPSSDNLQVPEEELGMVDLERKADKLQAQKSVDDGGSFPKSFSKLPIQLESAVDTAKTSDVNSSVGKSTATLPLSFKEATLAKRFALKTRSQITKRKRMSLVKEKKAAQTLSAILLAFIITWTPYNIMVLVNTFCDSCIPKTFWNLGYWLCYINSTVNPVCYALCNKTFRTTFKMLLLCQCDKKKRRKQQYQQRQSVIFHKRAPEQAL

SMILES | IC50 (M1 receptor) | IC50 (M3 receptor) | asthma incubation period (guinea pigs) | efficacy in asthma model, in words (guinea pigs) | IC50 [1]
C[N+]1(C)CCCCC1CC(c1ccccc1)c1ccccc1O.[Br-] (stereo not drawn) [I-2a-1-Br, 2-[2-(2-hydroxy-phenyl)-phenethyl]-N,N-dimethylpiperidine Bromide] | 8.8 ± 2.6 nM | 5.7 ± 1.1 nM | 228.9 ± 4.7 s | good efficacy | 
C[N+]1(C)CCCCC1CC(c1ccccc1O)c1ccccc1O.[Br-] (stereo not drawn) [I-3-2-Br, 2-[2,2-bis(2-hydroxy-phenyl)ethyl]-N,N-dimethylpiperidine Bromide] | 43.7 ± 15.3 nM | 11 ± 3.6 nM | 233.1 ± 21.8 s | good efficacy | 
C[N+]1(C)CCCCC1CC(c1ccccc1)c1cc(F)ccc1O.[Br-] (stereo not drawn) [I-10a-1, 2-[2-(2-hydroxy-5-fluorophenyl)-phenylethyl]-N,N-dimethylpiperidine bromide] |  | 37 ± 4.3 nM | 240 s | good efficacy | 
C[N+]1(C)CCCCC1CC(c1ccccc1O)c1ccccc1O.[Br-] (stereo not drawn) [I-3-1-Br, 2-[2,2-bis(2-hydroxy-phenyl)ethyl]-N,N-dimethylpiperidine Bromide] | 18.5 ± 3.6 nM | 6 ± 1.1 nM | 240 s | good efficacy | 
Cc1ccc(O)c(C(CC2CCCC[N+]2(C)C)c2ccccc2)c1.[Br-] (stereo not drawn) [I-4a-1-Br, 2-[2-(2-hydroxy-5-methyl-phenyl)-phenethyl]-N,N-dimethylpiperidine Bromide] | 28.8 ± 11.3 nM | 39.3 ± 10.9 nM | 240 s | good efficacy | 
C[N+]1(C)CCCCC1CC(c1ccccc1)c1ccccc1O (stereo not drawn) [I-2a-Br, 2-[2-(2-hydroxy-phenyl)-phenethyl]-N,N-dimethylpiperidine Bromide] | 53.8 ± 4.6 nM | 33.8 ± 3.6 nM |  |  | 6.4 nM
Cc1ccc(O)c(C(CC2CCCC[N+]2(C)C)c2ccccc2)c1 (single isomer, unassigned) [I-4a-Br, 2-[2-(2-hydroxy-5-methyl-phenyl)-phenethyl]-N,N-dimethylpiperidine Bromide] | 36.2 ± 6.1 nM | 35.5 ± 13.9 nM |  |  | 13.3 nM
C[N+]1(C)[C@@H]2C[C@@H](OC(=O)C(O)(c3cccs3)c3cccs3)C[C@H]1[C@@H]1O[C@@H]12.[Br-] [Tiotropium Bromide, reference compound] |  |  | 238.9 ± 5.0 s |  | 33 nM
C[N+]1(C)CCCCC1CC(c1ccccc1O)c1ccccc1O (racemic) [I-3-Br, 2-[2,2-bis(2-hydroxy-phenyl)ethyl]-N,N-dimethylpiperidine Bromide] | 23.4 ± 6.6 nM | 15.4 ± 2.9 nM |  |  | 4.1 nM
Cc1ccc(O)c(C(CC2CCCC[N+]2(C)C)c2ccccc2F)c1 (stereo not drawn) [I-7, 2-[2-(2-fluorophenyl)-2-(2-hydroxy-5-methyl-phenyl)-ethyl]-N,N-dimethylpiperidine Bromide] | 320 ± 20 nM | 103 ± 10 nM |  |  | 33.4 nM
C[N+]1(C)CCCCC1CC(c1ccccc1)c1ccccc1O (stereo not drawn) [I-2a-I, 2-[2-(2-hydroxy-phenyl)-phenethyl]N,N-dimethylpiperidine Iodide] | 16.5 ± 1.8 nM | 25.6 ± 1.9 nM |  |  | 
Cc1ccc(O)c(C(CC2CCCC[N+]2(C)C)c2ccccc2)c1 (single isomer, unassigned) [I-4b-Br, 2-[2-(2-hydroxy-5-methyl-phenyl)-phenethyl]-N,N-dimethylpiperidine Bromide] | 61 ± 21.8 nM | 47.7 ± 11.9 nM |  |  | 
Cc1ccc(O)c(C(CC2CCCCN2C)c2ccc(Cl)cc2)c1 (stereo not drawn) [II-14, 2-[2-(4-chlorophenyl)-2-(2-hydroxy-5-methylphenyl)ethyl]-N-methylpiperidine] | 129 ± 29.8 nM | 149 ± 39.5 nM |  |  | 
